Data from US10508077B2 (FORMA Therapeutics, Inc., priority 2015, dated 2019).

What follows are compounds tested against T1, Full length human recombinant HDAC8 protein (Homo sapiens, UniProt Q9BY41) (assay: In vitro histone deacetylase assay: enzymatic HDAC8 assay, electrophoretic mobility shift). Conditions: substrate RHKK(Ac)-NH2, 1 nM enzyme, compounds listed under IC50 range headings.
T1 construct: Full length human recombinant HDAC8 protein was expressed in baculoviral system; made in house
T1 sequence (Q9BY41 1-377): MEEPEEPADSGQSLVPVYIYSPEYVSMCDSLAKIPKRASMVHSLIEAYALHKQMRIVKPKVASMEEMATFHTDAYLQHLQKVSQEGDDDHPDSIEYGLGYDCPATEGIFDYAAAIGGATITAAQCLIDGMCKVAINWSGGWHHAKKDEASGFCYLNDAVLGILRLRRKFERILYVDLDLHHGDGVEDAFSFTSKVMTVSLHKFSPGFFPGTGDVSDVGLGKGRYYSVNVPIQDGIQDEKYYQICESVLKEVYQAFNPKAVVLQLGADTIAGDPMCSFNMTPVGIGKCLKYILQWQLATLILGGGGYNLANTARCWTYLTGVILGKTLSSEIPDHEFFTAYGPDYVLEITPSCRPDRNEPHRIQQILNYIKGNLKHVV
Format: biochemical
In short: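 Baculovirus-expressed full-length human HDAC8 (1 nM) deacetylated 2 µM fluorescent RHKK(Ac)-NH2 peptide in pH 7.5 HEPES, 1% DMSO, at 25 °C, with 12 compound concentrations at 3× spacing. SDS-quenched; product and substrate resolved by microfluidic electrophoresis, P/(S+P) converted to percent inhibition, and IC50 obtained by 4-parameter fit.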

Row | IC50 [µM] | Compound
1 | < 1 | O=C(/C=C/c1ccccc1N1CCN(C(=O)Cc2cccs2)CC1)NO [Example I-196, (E)-N-hydroxy-3-(2-(4-(2-(thiophen-2-yl)acetyl)piperazin-1-yl)phenyl)acrylamide]
2 | < 1 | CCSCC(=O)N1CCN(c2ccccc2/C=C/C(=O)NO)CC1 [Example I-197, (E)-3-(2-(4-(2-(ethylthio)acetyl)pipera-zin-1-yl)phenyl)-N-hydroxyacrylamide]
3 | < 1 | Cc1cc(C(=O)N2CCN(c3ccccc3/C=C/C(=O)NO)CC2)n[nH]1 [Example I-198, (E)-N-hydroxy-3-(2-(4-(5-methyl-1H-pyrazole-3-carbonyl)piperazin-1-yl)phenyl)acrylamide]
4 | < 1 | Cn1cncc1C(=O)N1CCN(c2ccccc2/C=C/C(=O)NO)CC1 [Example I-199, (E)-N-hydroxy-3-(2-(4-(1-methyl-1H-imidazole-5-carbonyl)piperazin-1-yl)phenyl)acrylamide]
5 | < 1 | CS(=O)(=O)CCCC(=O)N1CCN(c2ccccc2/C=C/C(=O)NO)CC1 [Example I-201, (E)-N-hydroxy-3-(2-(4-(4-(methylsulfonyl)butanoyl)piperazin-1-yl)phenyl)acrylamide]
6 | < 1 | O=C(/C=C/c1ccccc1N1CCN(C(=O)c2ccc(F)cn2)CC1)NO [Example I-202, (E)-3-(2-(4-(5-fluoropicolinoyl)piperazin-1-yl)phenyl)-N-hydroxyacrylamide]
7 | < 1 | COc1cc(CC(=O)N2CCN(c3ccccc3/C=C/C(=O)NO)CC2)ccc1O [Example I-203, (E)-N-hydroxy-3-(2-(4-(2-(4-hydroxy-3-methoxyphenyl)acetyl)piperazin-1-yl)phenyl)acrylamide]
8 | < 1 | O=C(/C=C/c1ccccc1N1CCN(C(=O)C2CC(F)(F)C2)CC1)NO [Example I-205, (E)-3-(2-(4-(3,3-difluorocyclobutane-1-carbonyl)piperazin-1-yl)phenyl)-N-hydroxyacrylamide]
9 | < 1 | O=C(/C=C/c1ccccc1N1CCN(C(=O)c2ccc3c(c2)OCO3)CC1)NO [Example I-207, (E)-3-(2-(4-(benzo[d][1,3]dioxole-5-carbonyl)piperazin-1-yl)phenyl)-N-hydroxyacrylamide]
10 | < 1 | CN1CCCC(C(=O)N2CCN(c3ccccc3/C=C/C(=O)NO)CC2)C1 (centres unmarked) [Example I-209, (E)-N-hydroxy-3-(2-(4-(1-methylpiperidine-3-carbonyl)piperazin-1-yl)phenyl)acrylamide]
11 | < 1 | O=C(/C=C/c1ccccc1N1CCN(C(=O)Cc2ccc(Cl)cc2)CC1)NO [Example I-210, (E)-3-(2-(4-(2-(4-chlorophenyl)acetyl)piper-azin-1-yl)phenyl)-N-hydroxyacrylamide]
12 | < 1 | Cc1nc(CC(=O)N2CCN(c3ccccc3/C=C/C(=O)NO)CC2)c(C)s1 [Example I-211]
13 | < 1 | O=C(/C=C/c1ccccc1N1CCN(C(=O)c2ccc(OC(F)F)cc2)CC1)NO [Example I-212, (E)-3-(2-(4-(4-(difluoromethoxy)benzoyl)piperazin-1-yl)phenyl)-N-hydroxyacrylamide]
14 | < 1 | COc1ccc(C(=O)N2CCN(c3ccccc3/C=C/C(=O)NO)CC2)cc1F [Example I-213]
15 | < 1 | Cc1oc(-c2ccc(Cl)cc2)cc1C(=O)N1CCN(c2ccccc2/C=C/C(=O)NO)CC1 [Example I-214, (E)-3-(2-(4-(5-(4-chlorophenyl)-2-methylfuran-3-carbonyl)piperazin-1-yl)phenyl)-N-hydroxyacrylamide]
16 | < 1 | O=C(/C=C/c1ccccc1N1CCN(C(=O)c2ccc3[nH]nnc3c2)CC1)NO [Example I-215, (E)-3-(2-(4-(1H-benzo[d][1,2,3]triazole-5-carbonyl)piperazin-1-yl)phenyl)-N-hydroxyacrylamide]
17 | < 1 | CC(C)N(Cc1cccc(C(F)(F)F)c1)c1ccccc1/C=C/C(=O)NO [Example I-216, (E)-N-hydroxy-3-(2-(isopropyl(3-(trifluoromethyl)benzyl)amino)phenyl)acrylamide]
